The structures appear in SMILES notation.

In one assay the target is T1, CDK2/Cyclin E (Homo sapiens, UniProt P24941).
T1 construct: His; made in house; host or cells: Sf9 insect cells (baculovirus)
Kind of assay: CDK2/cyclin E kinase assay (GST-Rb phosphorylation).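 Also: enzyme source: His-tagged CDK2/cyclin E complex co-expressed recombinantly in Sf9 insect cells using baculovirus constructs.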 The class given is biochemical.
Settings: not given
For the compound `Cc1nc(C)c(-c2ccnc(Nc3ccc(Cl)cc3)n2)s1` [Compound 2, (4-Chloro-phenyl)-[4-(2,4-dimethyl-thiazol-5-yl)-pyrimidin-2-yl]-amine], the IC50 worked out at 5100 nM.

The assay is the same for the next values; noted with them: Table 3; read-out: Average IC50 CDK2 cyclin E1.
Regarding `Cc1nc(C)c(-c2cc(Br)nc(Nc3cccc([N+](=O)[O-])c3)n2)s1` [Compound 41, [4-Bromo-6-(2,4-dimethyl-thiazol-5-yl)-pyrimidin-2-yl]-(3-nitro-phenyl)-amine], the IC50 was 580 nM. On the same count and under the same terms, the same measure for `COc1ccc(Nc2nccc(-c3sc(N)nc3C)n2)cc1` [Compound 111, [4-(2-Amino-4-methyl-thiazol-5-yl)-pyrimidin-2-yl]-(4-methoxy-phenyl)-amine]: 670 nM; for `Cc1nc(C)c(-c2ccnc(Nc3ccc(Cl)cc3Cl)n2)s1` [Compound 12, (2,4-Dichloro-phenyl)-[4-(2,4-dimethyl-thiazol-5-yl)-pyrimidin-2-yl]-amine]: 10000 nM; for `Cc1nc(C)c(-c2ccnc(Nc3cccc(F)c3)n2)s1` [Compound 22, [4-(2,4-Dimethyl-thiazol-5-yl)-pyrimidin-2-yl]-(3-fluoro-phenyl)-amine]: 220 nM. With `CCNc1nc(C)c(-c2ccnc(Nc3ccc(F)cc3)n2)s1` [Compound 60, [4-(2-Ethylamino-4-methyl-thiazol-5-yl)-pyrimidin-2-yl]-(4-fluoro-phenyl)-amine], the IC50 amounted to 510 nM. On the same count and under the same terms, the same measure for `COc1cccc(Nc2nccc(-c3sc(C)nc3C)n2)c1` [Compound 25, [4-(2,4-Dimethyl-thiazol-5-yl)-pyrimidin-2-yl]-(3-methoxy-phenyl)-amine]: 440 nM; for `Cc1nc(C)c(-c2ccnc(Nc3cc(Cl)cc(Cl)c3)n2)s1` [Compound 11, (3,5-Dichloro-phenyl)-[4-(2,4-dimethyl-thiazol-5-yl)-pyrimidin-2-yl]-amine]: 10000 nM; for `COC(=O)c1cc(Nc2nccc(-c3sc(C)nc3C)n2)ccc1Cl` [Compound 83, 2-Chloro-5-[4-(2,4-dimethyl-thiazol-5-yl)-pyrimidin-2-ylamino]-benzoic acid methyl ester]: 2000 nM.

`C=CCNc1nc(C)c(-c2ccnc(Nc3ccc(F)cc3)n2)s1` [Compound 67, [4-(2-Allylamino-4-methyl-thiazol-5-yl)-pyrimidin-2-yl]-(4-fluoro-phenyl)-amine]: the IC50 stood at 1300 nM.

Regarding `CNc1nc(C)c(-c2ccnc(Nc3ccc(C(F)(F)F)cc3)n2)s1` [Compound 74, [4-(4-Methyl-2-methylamino-thiazol-5-yl)-pyrimidin-2-yl]-(4-trifluoromethyl-phenyl)-amine], the IC50 amounted to 1900 nM. The same measure, in the same setting: the same measure for `COc1ccc(Nc2nccc(-c3sc(C)nc3C)n2)c(O)c1` [Compound 79, 2-[4-(2,4-Dimethyl-thiazol-5-yl)-pyrimidin-2-ylamino]-5-methoxy-phenol]: 1200 nM; for `Cc1nc(C)c(-c2ccnc(Nc3cccc(CO)c3)n2)s1` [Compound 100, {3-[4-(2,4-Dimethyl-thiazol-5-yl)-pyrimidin-2-ylamino]-phenyl}-methanol]: 190 nM; for `Cc1nc(C)c(-c2ccnc(Nc3ccc(C(=O)O)cc3)n2)s1` [Compound 40, 4-[4-(2,4-Dimethyl-thiazol-5-yl)-pyrimidin-2-ylamino]-benzoic acid]: 740 nM.

With `Cc1nc(C)c(-c2ccnc(Nc3cc(F)cc(F)c3)n2)s1` [Compound 10, (3,5-Difluoro-phenyl)-[4-(2,4-dimethyl-thiazol-5-yl)-pyrimidin-2-yl]-amine], the IC50 was determined as 5900 nM. Take `O=[N+]([O-])c1ccc(Nc2ncc(-c3ccnc(Nc4ccc(O)cc4)n3)s2)cc1` [Compound 95, 4-{4-[2-(4-Nitro-phenylamino)-thiazol-5-yl]-pyrimidin-2-ylamino}-phenol]: the IC50 was determined as 120 nM. With `CNc1nc(C)c(-c2ccnc(Nc3ccc(OC)cc3)n2)s1` [Compound 93, (4-Methoxy-phenyl)-[4-(4-methyl-2-methylamino-thiazol-5-yl)-pyrimidin-2-yl]-amine], the IC50 is 1 nM.

For `COc1ccccc1Nc1nccc(-c2sc(C)nc2C)n1` [Compound 24, [4-(2,4-Dimethyl-thiazol-5-yl)-pyrimidin-2-yl]-(2-methoxy-phenyl)-amine], the half-maximal inhibitory concentration (IC50) worked out at 6300 nM. On the same count and under the same terms, the same measure for `Cc1nc(C)c(-c2ccnc(Nc3cccc(I)c3)n2)s1` [Compound 20, [4-(2,4-Dimethyl-thiazol-5-yl)-pyrimidin-2-yl]-(3-iodo-phenyl)-amine]: 6800 nM.

In another assay the target is CDK9/cyclin T1 (Homo sapiens, UniProt P50750). Kind of assay: CDK9 assay (CTD peptide substrate). The class given is biochemical. To be noted: Table 3; read-out: Average IC50 CDK9 cyclin T1. The method, then: CTD peptide substrate (biotinyl-Ahx-(Tyr-Ser-Pro-Thr-Ser-Pro-Ser)4-NH2; 1-2 mg/mL) and recombinant human CDK7/cyclin H, CDK9/cyclin T1, or CDK9/cyclin K (0.5-2 μg) were incubated for 45 min at 30° C. in the presence of varying amounts of test compound in 20 mM MOPS pH 7.2, 25 mM β-glycerophosphate, 5 mM EGTA, 1 mM DTT, 1 mM sodium vanadate, 15 mM MgCl2, and 100 μM ATP (containing a trace amount of ^32PγATP) in a total volume of 25 μL in a 96-well microtiter plate. The reaction was stopped by placing the plate on ice for 2 min. Avidin (50 μg) was added to each well, and the plate was incubated at room temp for 30 min. The samples were transferred to a 96-well P81 filter plate, and washed (4×200 μL per well) with 75 mM phosphoric acid. Microscint 40 scintillation liquid (50 μL) was added to each well, and the amount of ^32P incorporation for each sample was measured using a Packard Topcount microplate scintillation counter.
Sequence of CDK9/cyclin T1 (P50750 whole entry): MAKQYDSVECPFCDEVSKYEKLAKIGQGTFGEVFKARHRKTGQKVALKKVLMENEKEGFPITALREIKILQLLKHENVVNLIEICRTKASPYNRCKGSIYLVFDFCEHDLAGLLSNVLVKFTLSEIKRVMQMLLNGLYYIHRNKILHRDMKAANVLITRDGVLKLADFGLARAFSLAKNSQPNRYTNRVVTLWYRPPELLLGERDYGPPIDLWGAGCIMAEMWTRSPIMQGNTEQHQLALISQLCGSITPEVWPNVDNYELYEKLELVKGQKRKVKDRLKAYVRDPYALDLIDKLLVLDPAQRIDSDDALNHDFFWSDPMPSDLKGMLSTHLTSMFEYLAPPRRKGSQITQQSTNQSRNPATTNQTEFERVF
Sequence of CDK9/cyclin T1 (O60563 whole entry partner): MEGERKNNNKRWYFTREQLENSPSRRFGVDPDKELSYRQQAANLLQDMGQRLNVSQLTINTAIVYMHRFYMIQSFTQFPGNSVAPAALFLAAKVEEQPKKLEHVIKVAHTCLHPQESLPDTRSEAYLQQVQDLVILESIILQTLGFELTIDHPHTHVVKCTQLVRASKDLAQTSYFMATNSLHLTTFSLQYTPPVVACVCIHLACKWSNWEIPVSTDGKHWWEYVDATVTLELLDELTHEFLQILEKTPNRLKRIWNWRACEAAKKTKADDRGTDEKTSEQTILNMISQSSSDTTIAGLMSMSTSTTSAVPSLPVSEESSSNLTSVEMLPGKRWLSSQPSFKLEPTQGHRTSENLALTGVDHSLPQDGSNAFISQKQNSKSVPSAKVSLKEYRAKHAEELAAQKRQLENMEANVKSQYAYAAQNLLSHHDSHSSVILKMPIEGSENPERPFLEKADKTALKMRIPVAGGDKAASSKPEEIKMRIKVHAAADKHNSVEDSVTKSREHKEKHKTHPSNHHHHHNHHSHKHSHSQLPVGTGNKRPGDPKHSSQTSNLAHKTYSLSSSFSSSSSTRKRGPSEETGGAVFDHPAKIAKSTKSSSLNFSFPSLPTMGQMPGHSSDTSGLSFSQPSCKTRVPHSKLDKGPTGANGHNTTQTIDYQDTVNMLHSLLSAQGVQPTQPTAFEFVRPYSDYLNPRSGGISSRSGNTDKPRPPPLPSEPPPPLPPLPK
Turning to `C=CCNc1nc(C)c(-c2ccnc(Nc3cccc([N+](=O)[O-])c3)n2)s1` [Compound 69, [4-(2-Allylamino-4-methyl-thiazol-5-yl)-pyrimidin-2-yl]-(3-nitro-phenyl)-amine], the IC50 was 68 nM. Turning to `Cc1nc(C)c(-c2ccnc(Nc3ccc(F)c(F)c3)n2)s1` [Compound 23, (3,4-Difluoro-phenyl)-[4-(2,4-dimethyl-thiazol-5-yl)-pyrimidin-2-yl]-amine], the IC50 came to 3110 nM. As for `Cc1nc(N)sc1-c1ccnc(Nc2ccc(N(C)C)cc2)n1` [Compound 106, N-[4-(2-Amino-4-methyl-thiazol-5-yl)-pyrimidin-2-yl]-N′,N′-dimethyl-benzene-1,4-diamine], the IC50 amounted to 240 nM.

On to `Cc1nc(NCCO)sc1-c1ccnc(Nc2ccc(F)cc2)n1` [Compound 145, 2-{5-[2-(4-Fluoro-phenylamino)-pyrimidin-4-yl]-4-methyl-thiazol-2-ylamino}-ethanol], for which the half-maximal inhibitory concentration (IC50) turned out to be 8 nM. The same measure, in the same setting: the same measure for `Cc1nc(N)sc1-c1ccnc(Nc2cccc(Br)c2)n1` [Compound 119, [4-(2-Amino-4-methyl-thiazol-5-yl)-pyrimidin-2-yl]-(3-bromo-phenyl)-amine]: 280 nM; for `CNc1nc(C)c(-c2ccnc(Nc3ccc(N(C)C)cc3)n2)s1` [Compound 131, N,N-Dimethyl-N′-[4-(4-methyl-2-methylamino-thiazol-5-yl)-pyrimidin-2-yl]-benzene-1,4-diamine]: 170 nM; for `Cc1nc(NCCO)sc1-c1ccnc(Nc2cccc([N+](=O)[O-])c2)n1` [Compound 144, 2-{4-Methyl-5-[2-(3-nitro-phenylamino)-pyrimidin-4-yl]-thiazol-2-ylamino}-ethanol]: 4 nM.

The assay is the same for the next values; noted with them: Table 4; read-out: Kinase Inhibition IC50 CDK9-cyclin T1.
In the case of `Cc1cc(Nc2nccc(-c3sc(=O)n(C)c3C)n2)ccc1F` [Compound 162, 5-[2-(4-Fluoro-3-methyl-phenylamino)-pyrimidin-4-yl]-3,4-dimethyl-3H-thiazol-2-one], the IC50 was found to be 79 nM. Take `Cc1c(-c2ccnc(Nc3ccc(O)cc3)n2)sc(=O)n1C` [Compound 152, 5-[2-(4-Hydroxy-phenylamino)-pyrimidin-4-yl]-3,4-dimethyl-3H-thiazol-2-one]: the IC50 was found to be 2.3 nM. Regarding `Cc1c(-c2ccnc(Nc3ccc(F)cc3)n2)sc(=O)n1C` [Compound 155, 5-[2-(4-Fluoro-phenylamino)-pyrimidin-4-yl]-3,4-dimethyl-3H-thiazol-2-one], the IC50 is 2.7 nM.

For the next assay, the target named is CDK1/Cyclin B (Homo sapiens, UniProt P06493). Description: CDK1/cyclin B kinase assay (GST-Rb phosphorylation).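 Also: Enzyme: His-tagged CDK1/Cyclin B co-expressed in baculovirus-infected Sf9 insect cells, purified via metal-chelate chromatography.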
Sequence of CDK1/Cyclin B (P06493 whole entry, species assumed): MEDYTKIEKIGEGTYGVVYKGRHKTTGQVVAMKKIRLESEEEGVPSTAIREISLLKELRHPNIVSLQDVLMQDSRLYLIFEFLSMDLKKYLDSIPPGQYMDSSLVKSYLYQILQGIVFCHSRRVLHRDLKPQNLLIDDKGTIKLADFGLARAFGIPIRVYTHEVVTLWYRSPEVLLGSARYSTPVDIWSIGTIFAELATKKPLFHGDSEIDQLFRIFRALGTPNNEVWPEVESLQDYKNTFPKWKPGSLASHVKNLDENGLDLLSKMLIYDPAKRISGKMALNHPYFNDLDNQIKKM
Sequence of CDK1/Cyclin B (P14635 whole entry partner, species assumed): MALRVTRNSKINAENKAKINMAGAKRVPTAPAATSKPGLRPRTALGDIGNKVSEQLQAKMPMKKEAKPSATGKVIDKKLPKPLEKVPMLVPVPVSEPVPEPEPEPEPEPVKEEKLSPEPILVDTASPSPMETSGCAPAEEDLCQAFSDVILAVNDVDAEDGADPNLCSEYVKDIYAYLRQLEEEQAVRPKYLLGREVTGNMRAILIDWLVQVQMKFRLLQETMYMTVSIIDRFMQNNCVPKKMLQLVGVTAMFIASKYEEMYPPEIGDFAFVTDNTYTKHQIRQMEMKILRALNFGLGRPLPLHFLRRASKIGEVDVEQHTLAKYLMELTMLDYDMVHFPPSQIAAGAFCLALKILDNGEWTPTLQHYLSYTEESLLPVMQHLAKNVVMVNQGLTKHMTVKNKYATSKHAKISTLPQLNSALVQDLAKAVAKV
Settings: not given
Consider `Cc1nc(C)c(-c2ccnc(Nc3cc(Cl)cc(Cl)c3)n2)s1` [Compound 11, (3,5-Dichloro-phenyl)-[4-(2,4-dimethyl-thiazol-5-yl)-pyrimidin-2-yl]-amine], for which inhibition was half-maximal at 20000 nM (IC50). Same read-out and setting: the same measure for `Cc1nc(C)c(-c2ccnc(Nc3ccc(Cl)cc3)n2)s1` [Compound 2, (4-Chloro-phenyl)-[4-(2,4-dimethyl-thiazol-5-yl)-pyrimidin-2-yl]-amine]: 14000 nM; for `Cc1nc(C)c(-c2ccnc(Nc3ccccc3F)n2)s1` [Compound 7, [4-(2,4-Dimethyl-thiazol-5-yl)-pyrimidin-2-yl]-(2-fluoro-phenyl)-amine]: 12000 nM; for `Cc1nc(C)c(-c2ccnc(Nc3cc(F)cc(F)c3)n2)s1` [Compound 10, (3,5-Difluoro-phenyl)-[4-(2,4-dimethyl-thiazol-5-yl)-pyrimidin-2-yl]-amine]: 5500 nM.

The values are drawn from patent US20050288307A1, “Anti-viral compounds” (priority 2002, published 2005).
